Assay results: paper PMC7900708 (Biochemistry and Biophysics Reports, 2021)

How the values were obtained:
[1] = molecular target: T1, MtuUng (Mycobacterium tuberculosis uracil DNA glycosylase) (Mycobacterium tuberculosis, UniProt P9WFQ9); experiment: Molecular beacon fluorescence assay of MtuUng activity and inhibition; format: biochemical
T1 sequence (P9WFQ9 1-227): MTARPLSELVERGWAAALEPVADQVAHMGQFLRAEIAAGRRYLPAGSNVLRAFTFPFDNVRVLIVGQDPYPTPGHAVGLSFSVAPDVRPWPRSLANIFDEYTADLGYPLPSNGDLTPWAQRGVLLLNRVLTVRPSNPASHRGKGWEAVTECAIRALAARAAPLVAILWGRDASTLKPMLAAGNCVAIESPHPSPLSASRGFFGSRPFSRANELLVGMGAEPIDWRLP

uracil DNA glycosylase = details: cited from earlier work

Structure (SMILES) | IC50 [1] | other results
O=c1[nH]ccc(=S)[nH]1 [4-Thio-Uracil] | 3.57 ± 0.35 mM | 
Nc1c[nH]c(=O)[nH]c1=O [5-Amino-Uracil] | 7.18 ± 0.97 mM | 
O=c1[nH]cc(Br)c(=O)[nH]1 [5-Bromo-Uracil] | 13.6 ± 0.73 mM | 
O=c1[nH]cc(Cl)c(=O)[nH]1 [5-Chloro-Uracil] | 8.71 ± 0.7 mM | Ki [1]: 7.04 mM; type of inhibition (Lineweaver-Burk plot) ([1]; different inhibitor concentrations, 0.3 nM MtuUng): linear mixed inhibition
O=c1[nH]cc(F)c(=O)[nH]1 [5-Fluoro-Uracil] | 50.2 ± 3.85 mM | 
O=c1[nH]cc(I)c(=O)[nH]1 [5-Iodo-Uracil] | 4.92 ± 0.51 mM | 
O=[N+]([O-])c1cnc(O)nc1O [5-Nitro-Uracil] | 10.8 ± 0.32 mM | 
O=C1CC(=O)NC(=O)N1 [Barbituric acid] | 7.29 ± 0.32 mM | 
O=c1cc[nH]c(=O)[nH]1 [Uracil] | 2.05 ± 0.3 mM | mode of inhibition (uracil DNA glycosylase): non-competitive
